Results reported in ChEMBL document CHEMBL1649350, “Receptor-dependent (RD) 3D-QSAR approach of a series of benzylpiperidine inhibitors of human acetylcholinesterase (HuAChE)” (Eur J Med Chem, 2011).

Target: Acetylcholinesterase (Homo sapiens, UniProt P22303)
Sequence (P22303 whole entry): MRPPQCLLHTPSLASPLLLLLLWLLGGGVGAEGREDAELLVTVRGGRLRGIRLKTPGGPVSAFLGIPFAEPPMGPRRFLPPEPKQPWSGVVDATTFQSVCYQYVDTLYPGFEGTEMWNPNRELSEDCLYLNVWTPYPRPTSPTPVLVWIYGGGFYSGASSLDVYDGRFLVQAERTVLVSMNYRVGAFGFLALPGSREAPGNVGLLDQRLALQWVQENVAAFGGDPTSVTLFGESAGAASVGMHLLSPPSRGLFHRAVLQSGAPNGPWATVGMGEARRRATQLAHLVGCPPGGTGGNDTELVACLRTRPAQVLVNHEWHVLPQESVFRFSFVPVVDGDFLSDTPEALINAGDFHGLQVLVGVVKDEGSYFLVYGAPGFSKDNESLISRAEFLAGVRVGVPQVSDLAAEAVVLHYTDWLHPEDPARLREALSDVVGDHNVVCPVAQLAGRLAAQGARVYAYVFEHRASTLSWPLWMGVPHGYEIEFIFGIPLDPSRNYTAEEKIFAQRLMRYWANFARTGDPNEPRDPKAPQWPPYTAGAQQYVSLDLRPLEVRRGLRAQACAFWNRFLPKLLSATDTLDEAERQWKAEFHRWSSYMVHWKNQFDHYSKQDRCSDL
Description: Inhibition of human acetylcholinesterase

SMILES | IC50
O=C(CCC1CCN(Cc2ccccc2)CC1)c1ccc2c(c1)CCCN2 | 0.0646 µM
O=C(CCC1CCN(Cc2ccccc2)CC1)c1ccc2c(c1)NC(c1ccccc1)N2 (stereo not drawn) | 0.0331 µM
O=C(CCC1CCN(Cc2ccccc2)CC1)c1ccc2c(c1)CNCCC2 | 0.0229 µM
O=C(CCC1CCN(Cc2ccccc2)CC1)c1ccc2c(c1)CCNCC2 | 0.0251 µM
O=C(CCC1CCN(Cc2ccccc2)CC1)c1ccc2c(c1)CNCCO2 | 0.0398 µM
O=C(CCC1CCN(Cc2ccccc2)CC1)c1cc2c3c(c1)CC(=O)N3CCC2 | 0.00363 µM
O=C(CCC1CCN(Cc2ccccc2)CC1)c1cc2c3c(c1)CCN3C(=O)CC2 | 0.00977 µM
O=C(CCC1CCN(Cc2ccccc2F)CC1)c1cc2c3c(ccn3C(=O)CC2)c1 | 0.00251 µM
O=C(CCC1CCN(Cc2cccc(F)c2)CC1)c1cc2c3c(ccn3C(=O)CC2)c1 | 0.00129 µM
O=C(CCC1CCN(Cc2ccccc2Cl)CC1)c1cc2c3c(ccn3C(=O)CC2)c1 | 0.00513 µM
O=C(CCC1CCN(Cc2cccc(Cl)c2)CC1)c1cc2c3c(ccn3C(=O)CC2)c1 | 0.0049 µM
O=C(CCC1CCN(Cc2ccc(Cl)cc2)CC1)c1cc2c3c(ccn3C(=O)CC2)c1 | 0.151 µM
COc1ccccc1CN1CCC(CCC(=O)c2cc3c4c(ccn4C(=O)CC3)c2)CC1 | 0.0646 µM
COc1cccc(CN2CCC(CCC(=O)c3cc4c5c(ccn5C(=O)CC4)c3)CC2)c1 | 0.126 µM
COc1ccc(CN2CCC(CCC(=O)c3cc4c5c(ccn5C(=O)CC4)c3)CC2)cc1 | 0.347 µM
O=C(CCC1CCN(Cc2ccccc2O)CC1)c1cc2c3c(ccn3C(=O)CC2)c1 | 0.0011 µM
O=C(CCC1CCN(Cc2cccc(O)c2)CC1)c1cc2c3c(ccn3C(=O)CC2)c1 | 0.00871 µM
O=C(CCC1CCN(Cc2ccccc2[N+](=O)[O-])CC1)c1cc2c3c(ccn3C(=O)CC2)c1 | 0.0891 µM
O=C(CCC1CCN(Cc2cccc([N+](=O)[O-])c2)CC1)c1cc2c3c(ccn3C(=O)CC2)c1 | 0.00288 µM
O=C(CCC1CCN(Cc2ccccc2)CC1)c1cc2c3c(c1)CCC(=O)N3CCC2 | 0.0158 µM
O=C(CCC1CCN(Cc2ccccc2)CC1)c1cc2c3c(c1)CCN3C(=O)CCC2 | 0.0525 µM
CS(=O)(=O)Nc1ccc2c(CCC3CCN(Cc4ccccc4)CC3)noc2c1 | 0.0141 µM
c1ccc(CN2CCC(CCc3noc4cc(C5CCCCC5)ccc34)CC2)cc1 | 0.000794 µM
O=C(CCC1CCN(Cc2ccc(F)cc2)CC1)c1cc2c3c(ccn3C(=O)CC2)c1 | 0.00457 µM
O=C(CCC1CCN(Cc2ccc(O)cc2)CC1)c1cc2c3c(ccn3C(=O)CC2)c1 | 0.00049 µM
O=C(CCC1CCN(Cc2ccc([N+](=O)[O-])cc2)CC1)c1cc2c3c(ccn3C(=O)CC2)c1 | 0.0427 µM
O=C(CCC1CCN(Cc2ccccc2)CC1)c1ccc2c(c1)NCCC2 | 0.166 µM
O=C(CCC1CCN(Cc2ccccc2)CC1)c1ccc2c(c1)CCN2 | 0.0525 µM
